Columns and labels:
physchem [1] = conditions: simulated gi fluid, pH 5.2
ENTV71 = test: microbe, parasite or virus in culture; type: cell-based, EV-A71; conditions: Enterovirus A, Vero 76
DENV2 = test: microbe, parasite or virus in culture; type: cell-based, Dengue virus 2; conditions: Dengue virus, DENV2, Huh-7
[2] = female, ICR (CD-1), mouse, in vivo, po
Influenza A H1N1 = test: microbe, parasite or virus in culture; type: cell-based, influenza A virus; conditions: Influenza A virus, H1N1, MDCK
MEV = test: microbe, parasite or virus in culture; type: cell-based; conditions: Measles morbillivirus, Vero 76
WNV = test: microbe, parasite or virus in culture; type: cell-based; conditions: West Nile virus, Vero 76
in vitro [3] = conditions: dog
in vitro [4] = conditions: human
in vitro [5] = conditions: human; remark: listed apart in the source
Enterovirus-68 = test: microbe, parasite or virus in culture; type: cell-based, EV-D68; conditions: Enterovirus D, RD
HRV-14 = test: microbe, parasite or virus in culture; type: cell-based, human rhinovirus; conditions: Rhinovirus B, HRV14
in vitro [6] = conditions: human; remark: listed apart in the source
physchem [7] = conditions: simulated gi fluid, pH 1.3
POWV = test: microbe, parasite or virus in culture; type: cell-based, Powassan virus; conditions: Powassan virus, BHK-21, POWV(Lineage 1) strain LB, BHK-21 cells
CHIKV = test: microbe, parasite or virus in culture; type: cell-based, Chikungunya virus; conditions: Chikungunya virus, Huh-7
Junin virus = test: microbe, parasite or virus in culture; type: cell-based; conditions: Mammarenavirus juninense, Vero
YFV = test: microbe, parasite or virus in culture; type: cell-based; conditions: Yellow fever virus, Huh-7
Parainfluenza virus 3 = test: organism not typed; type: cell-based; conditions: MA104
EEEV = test: microbe, parasite or virus in culture; type: cell-based, Eastern equine encephalitis virus; conditions: Eastern equine encephalitis virus, Vero 76, EEEV strain FL39-939, Vero 76 cells
VEEV = test: microbe, parasite or virus in culture; type: cell-based, Venezuelan equine encephalitis virus; conditions: Venezuelan equine encephalitis virus, Vero 76, VEEV strain TC-83, Vero 76 cells
Tacaribe virus = test: microbe, parasite or virus in culture; type: cell-based; conditions: Mammarenavirus tacaribeense, Vero
SARS-CoV-2 = test: microbe, parasite or virus in culture; type: cell-based; conditions: Severe acute respiratory syndrome coronavirus 2, Vero C1008
in vitro [8] = conditions: Syrian golden hamster
MERS = test: microbe, parasite or virus in culture; type: cell-based, MERS coronavirus; conditions: Middle East respiratory syndrome-related coronavirus, Vero 76
RVFV = test: microbe, parasite or virus in culture; type: cell-based, Rift Valley fever virus; conditions: Rift Valley fever virus, Huh-7, RVFV strain MP-12, Huh7 cells
[9] = mouse, in vivo, po, 15 mg/kg
RSV = test: microbe, parasite or virus in culture; type: cell-based; conditions: human respiratory syncytial virus, MA104
Poliovirus = test: microbe, parasite or virus in culture; type: cell-based; conditions: Enterovirus C, Vero 76, Poliovirus strain Mahoney, Vero 76 cells

CC(C)OC(=O)[C@H](C)N[P@](=O)(OC[C@@]1(F)O[C@@H](n2ccc(=O)[nH]c2=O)[C@H](O)[C@@H]1O)Oc1ccccc1 [EIDD-3232, isopropyl ((S)-(((2S,3S,4R,5R)-5-(2,4-dioxo-3,4-dihydropyrimidin-1(2H)-yl)-2-fluoro-3,4-dihydroxytetrahydrofuran-2-yl)methoxy)(phenoxy)phosphoryl)-L-alaninate]
half-life (physchem [1]): > 24 h
EC50 (ENTV71): > 32 µM
EC50 (DENV2): 4.2 µM
EC90 (DENV2): 19 µM
Cmax [2]: 2940 ± 826 nM
EC50 (Influenza A H1N1): 1.3 µM
EC90 (Influenza A H1N1): 1.5 µM
EC50 (MEV): 9.6 µM
EC50 (WNV): > 32 µM
CC50 (in vitro [3]): > 32 µM
CC50 (in vitro [4]): > 32 µM
CC50 (in vitro [5]): > 32 µM
EC50 (Enterovirus-68): 18 µM
EC50 (HRV-14): > 32 µM
CC50 (in vitro [6]): > 32 µM
half-life (physchem [7]): 4.8 h
EC50 (POWV): > 32 µM
EC50 (CHIKV): 5.7 µM
EC90 (CHIKV): 4.5 µM
EC90 (Junin virus): 2.2 µM
EC50 (Junin virus; Junin virus strain Candid #1, Vero cells): 2 µM
EC50 (YFV): 15 µM
EC50 (Parainfluenza virus 3): > 32 µM
EC50 (EEEV): > 32 µM
EC50 (VEEV): > 32 µM
EC90 (Tacaribe virus): 3.9 µM
EC50 (Tacaribe virus; Tacaribe virus strain TRVL 11573, Vero cells): 2.8 µM
EC50 (SARS-CoV-2): > 17 µM
CC50 (in vitro [8]): > 32 µM
EC50 (MERS): > 32 µM
EC50 (RVFV): 6.4 µM
EC90 (RVFV): 7.4 µM
Tolerability Summary [9]: Class D
EC50 (RSV): > 32 µM
EC50 (Poliovirus): > 32 µM
